Test results reported in patent US7696374B2, “Arylalklcarbamate derivatives, preparation method thereof and use of same in therapeutics” (Sanofi-Aventis, priority 2003, dated 2010).

Compound | melting point [°C]
COc1ccc(OC(=O)NCc2ccc(Oc3ccccc3)cc2)cc1 | 89 to 91
Cc1ccc(OC(=O)NCCc2ccc(-c3ccccc3)cc2)cc1 | 172 to 174
O=C(NCc1ccc(-c2ccccc2)cc1)Oc1ccc(F)cc1 | 155 to 157
O=C(NCc1ccc(Oc2ccccc2)cc1)OCC(F)(F)F [Compound No. 10, 2,2,2-Trifluoroethyl 4-phenyloxybenzylcarbamate] | 145 to 148

Other lines, results leading:

melting point [°C] | Compound
123 to 125 | O=C(NCc1ccc(-c2ccccc2)cc1)OCC(F)(F)F [Compound No. 1, 2,2,2-Trifluoroethyl 1,1′-biphenyl-4-ylmethylcarbamate]
79 to 81 | O=C(NCCc1ccc(-c2ccccc2)cc1)OCC(F)(F)F [Compound No. 19, 2,2,2-Trifluoroethyl 2-(1,1′-biphenyl-4-yl)ethylcarbamate]
